The supplement of paper PMC10627819

Tests used:
[1] = test system: S. aureus DSM 20231; assay: fitness (endpoint OD595 vs no drug) (fraction); higher = more growth
In short: (§1)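 Bacterial growth was followed in 384-well plates seeded at OD595 0.01, with 30 µl per well, or 55 µl for S. pneumoniae, in TSB, LB Lennox or CY at 37 °C. OD595 was read every 30 min for 14 h, and each reading had the first reading subtracted as background. Fitness is the background-corrected optical density at entry into stationary phase divided by the robust mean of the no-drug control wells. This ratio is capped at 1.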

[2] = test system: B. subtilis 168; assay: Bliss interaction score (quartile over a dose matrix) (fitness difference); higher = more antagonism (negative = synergy)
In short: (§2)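 Each plate was normalised to the robust mean of its own no-drug wells, using OD595 at entry into stationary phase, with values capped at 1. This normalised growth is the fitness value. The Bliss score is the difference between observed and product-expected fitness, with single-drug fitness inferred from the combination data and quartiles taken over technical, biological and donor/recipient replicates.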

[3] = test system: S. aureus DSM 20231; assay: as above
In short: as §2

[4] = test system: S. aureus Newman; assay: as above
In short: as §2

[5] = test system: S. pneumoniae D39V; assay: as above
In short: as §2

[6] = test system: B. subtilis 168; assay: fitness (endpoint OD595 vs no drug) (fraction); higher = more growth
In short: as §1

[7] = test system: S. aureus Newman; assay: as above
In short: as §1

[8] = test system: S. pneumoniae D39V; assay: as above
In short: as §1
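Wherever Bliss interaction score (quartile over a dose matrix) is given: first quartile when negative (synergy) and third quartile when positive (antagonism).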

COc1cc(Cc2cnc(N)nc2N)cc(OC)c1OC [Trimethoprim] + CN[C@H](CC(C)C)C(=O)N[C@H]1C(=O)N[C@@H](CC(N)=O)C(=O)N[C@H]2C(=O)N[C@H]3C(=O)N[C@H](C(=O)N[C@H](C(=O)O)c4cc(O)cc(O)c4-c4cc3ccc4O)[C@H](O)c3ccc(c(Cl)c3)Oc3cc2cc(c3O[C@@H]2O[C@H](CO)[C@@H](O)[C@H](O)[C@H]2O[C@H]2C[C@](C)(N)[C@H](O)[C@H](C)O2)Oc2ccc(cc2Cl)[C@H]1O [Vancomycin]
[1], first compound 0.125 µg/mL, one replicate
Details | fitness
partner 0.1875 µg/mL | 0.667
partner 0.375 µg/mL | 0.898
partner 0.75 µg/mL | 0.984

fitness, [1]
Details | first compound 0.25 µg/mL | first compound 0.5 µg/mL | first compound 1 µg/mL
partner 0.1875 µg/mL | 0.604 | 0.0644 | 0.0331
partner 0.375 µg/mL | 0.613 | – | 0.0412
partner 0.75 µg/mL | 0.62 | – | 0.0581

Details | Bliss interaction score
[2] | 0.0634
[3] | -0.0623
[4] | -0.0768
[5] | 0.119

O=C(N[C@H](CO)[C@H](O)c1ccc([N+](=O)[O-])cc1)C(Cl)Cl [Chloramphenicol] + CCC[C@@H]1C[C@@H](C(=O)N[C@@H]([C@H]2O[C@H](SC)[C@H](O)[C@@H](O)[C@H]2O)[C@@H](C)O)N(C)C1 [Lincomycin]
fitness, [1]
Details | first compound 0.75 µg/mL | first compound 1.5 µg/mL | first compound 3 µg/mL
partner 0.1 µg/mL | 0.729 | 0.57 | –
partner 0.2 µg/mL | 0.563 | 0.378 | –
partner 0.4 µg/mL | 0.215 | 0.167 | 0.0709

Details | Bliss interaction score
[2] | 0.11
[3] | 0.0462
[4] | -0.167
[5] | 0.105

CCC[C@@H]1C[C@@H](C(=O)N[C@@H]([C@H]2O[C@H](SC)[C@H](O)[C@@H](O)[C@H]2O)[C@@H](C)O)N(C)C1 [Lincomycin] + CCCCCCCCCC(=O)N[C@@H]1[C@H]([C@@H]([C@H](O[C@H]1OC2=C3C=C4C=C2OC5=C(C=C(C=C5)[C@H]([C@H]6C(=O)N[C@@H](C7=C(C(=CC(=C7)O)OC8[C@H]([C@H]([C@@H]([C@H](O8)CO)O)O)O)C9=C(C=CC(=C9)[C@H](C(=O)N6)NC(=O)[C@@H]4NC(=O)[C@@H]1C2=CC(=CC(=C2)OC2=C(C=CC(=C2)[C@H](C(=O)N[C@H](CC2=CC(=C(O3)C=C2)Cl)C(=O)N1)N)O)O)O)C(=O)O)O[C@H]1[C@@H]([C@H]([C@@H]([C@H](O1)CO)O)O)NC(=O)C)Cl)CO)O)O [Teicoplanin]
fitness, [1], main component drawn
Details | partner 0.1562 µg/mL | partner 0.3125 µg/mL | partner 0.625 µg/mL
first compound 0.1 µg/mL | 0.913 | 0.979 | ≥ 1
first compound 0.2 µg/mL | 0.825 | 0.821 | 0.941

main component drawn
Details | Bliss interaction score
[2] | -0.111
[3] | 0.118
[4] | 0.179
[5] | -0.0397

O=C(O[C@@H]1Cc2c(O)cc(O)cc2O[C@@H]1c1cc(O)c(O)c(O)c1)c1cc(O)c(O)c(O)c1 [EGCG] + CN(C)c1cc(NC(=O)CNC(C)(C)C)c(O)c2c1C[C@H]1C[C@H]3[C@H](N(C)C)C(O)=C(C(N)=O)C(=O)[C@@]3(O)C(O)=C1C2=O [Tigecycline]
fitness
Details | first compound 6.25 µg/mL | first compound 12.5 µg/mL | first compound 25 µg/mL | first compound 50 µg/mL
[6], partner 0.039 µg/mL | 0.929 | – | – | –
[6], partner 0.078 µg/mL | 0.929 | – | – | –
[6], partner 0.156 µg/mL | 0.91 | – | – | –
[7], partner 0.039 µg/mL | – | 0.755 | 0.744 | –
[7], partner 0.078 µg/mL | – | 0.797 | 0.788 | 0.657
[7], partner 0.156 µg/mL | – | 0.82 | 0.721 | 0.796
[8], partner 0.325 µg/mL | – | 0.913 | 0.97 | 0.958
[8], partner 0.65 µg/mL | – | 0.912 | 0.971 | 0.951
[8], partner 1.3 µg/mL | – | 0.928 | 0.916 | 0.954
[8], partner 2.6 µg/mL | – | 0.897 | 0.929 | 0.935

fitness, [6], one replicate
Details | first compound 6.25 µg/mL | first compound 12.5 µg/mL | first compound 25 µg/mL
partner 0.125 µg/mL | ≥ 1 | 0.897 | 0.55
partner 0.25 µg/mL | 0.944 | 0.72 | 0.428
partner 0.5 µg/mL | 0.942 | 0.757 | 0.418

Details | Bliss interaction score
[2] | 0.0564
[3] | -0.0488
[4] | -0.067
[5] | 0.079
